Test: gentamicin sulfate loading efficiency of E-sprayed DOPS coatings
Format: physicochemical
Conditions: 14 kV E-spray voltage compared with the other voltages (FIG. 4)

gentamicin sulfate
gentamicin sulfate loading efficiencies: significantly greater

From patent US20120058150A1, “Methods for Delivering Compositions by Electrospraying a Medical Device” (COLORADO STATE UNIVERSITY RESEARCH FOUNDATION, priority 2010, published 2012)
